Where a name gives a salt, the structure may show the parent alone.

One test deals with ATGL-KO iPSCs. Briefly: High throughput iPSC chemical screening, Oil Red O (ORO) lipid accumulation. On Z-score: test concentration or dose not given here. It counts as cell-based, mouse. The following applies: glycolytic switch compounds.
For `C#C[C@]1(OC(C)=O)CC[C@H]2[C@@H]3CCC4=C[C@@H](OC(C)=O)CC[C@@H]4[C@H]3CC[C@@]21C` [Ethynodiol diacetate], the “Rank in normalized ORO score from screen” value turned out to be 61.

The test is the same for the next values; noted with them: normalized ORO level vs DMSO-treated cells; compound present during 7 days differentiation, 96-well; negative = decrease in lipid accumulation.
`CCCNC(=O)NS(=O)(=O)c1ccc(Cl)cc1` [Chlorpropamide] displayed a Z-score of 0.199.

In turn, `C[N+](C)(CCOc1ccccc1)Cc1ccccc1.O=C([O-])c1cc2ccccc2cc1O` [Bephenium hydroxynaphthoate] showed a Z-score of −0.5444.

`Clc1ccc(CCC(Cn2ccnc2)Sc2c(Cl)cccc2Cl)cc1` (centres unmarked) [Butoconazole nitrate] displayed a Z-score of −0.4077.

Compound `CCC(Cc1c(I)cc(I)c(N)c1I)C(=O)O` (centres unmarked) [Iopanoic acid] yielded a Z-score of −0.7767.

The compound `NC(N)=Nc1nc(CSCCC(N)=NS(N)(=O)=O)cs1` [Famotidine] came in with a Z-score of −1.1457.

Regarding `O=C(O)CCC(=O)c1ccc(-c2ccccc2)cc1` [Fenbufen], the Z-score was −0.3877.

Compound `C[C@H]1[C@H](NC(=O)/C(=N\OC(C)(C)C(=O)O)c2csc(N)n2)C(=O)N1S(=O)(=O)O` [Aztreonam] displayed a Z-score of 0.1728.

`Cc1n[nH]c(=O)[nH]c1=O` [Azathymine, 6] displayed a Z-score of −0.2304.

For Iobenguane sulfate, the Z-score is −0.2715.

`CCC1(C)CC(=O)NC(=O)C1` [Bemegride] returned a Z-score of −0.3526.

Compound `C[C@H](CCC(=O)O)[C@H]1CC[C@H]2[C@@H]3C(=O)C[C@@H]4CC(=O)CC[C@]4(C)[C@H]3CC(=O)[C@]12C` [Dehydrocholic acid] displayed a Z-score of −1.006.

The compound `CC(C(=O)O)c1ccc(N2Cc3ccccc3C2=O)cc1` (centres unmarked) [Indoprofen] showed a Z-score of −1.4204.

In the case of `CN[C@H]1CC[C@@H](c2ccc(Cl)c(Cl)c2)c2ccccc21` [Sertraline hydrochloride], the Z-score was −1.6299.

With `CO[C@H]1/C=C/O[C@@]2(C)Oc3c(C)c(O)c4c(O)c(c(/C=N/N5CCN(C)CC5)c(O)c4c3C2=O)NC(=O)/C(C)=C\C=C\[C@H](C)[C@H](O)[C@@H](C)[C@@H](O)[C@@H](C)[C@H](OC(C)=O)[C@@H]1C` [Rifampicin], the Z-score is −0.5227.

Compound `C#C[C@]1(OC(C)=O)CC[C@H]2[C@@H]3CCC4=C[C@@H](OC(C)=O)CC[C@@H]4[C@H]3CC[C@@]21C` [Ethynodiol diacetate] came in with a Z-score of −1.4458.

Compound `CCCC1C(=O)N2C(N(C)C)=Nc3ccc(C)cc3N2C1=O` (centres unmarked) [Azapropazone] showed a Z-score of −0.6493.

For `CCCCOc1ccc(OCCCN2CCOCC2)cc1` [Pramoxine hydrochloride], the Z-score stood at 0.5195.

As for `CCc1cccc2c3c([nH]c12)C(CC)(CC(=O)O)OCC3` (centres unmarked) [Etodolac], the Z-score came out at 1.6287.

`O=C(NCNC(=O)NC1C(=O)NC(=O)N1CO)NC1C(=O)NC(=O)N1CO` (centres unmarked) [Imidurea]: the Z-score was 0.2567.

`NC[C@H]1O[C@H](O[C@H]2[C@H](O)[C@@H](O[C@H]3O[C@H](CO)[C@@H](O)[C@H](N)[C@H]3O)[C@H](N)C[C@@H]2N)[C@H](N)C[C@@H]1O` [Tobramycin] gave a Z-score of 1.694.

In turn, `CN(C)[C@@H]1C(O)=C(C(=O)NCN2CCCC2)C(=O)[C@@]2(O)C(O)=C3C(=O)c4c(O)cccc4[C@@](C)(O)[C@H]3C[C@@H]12` [Rolitetracycline] displayed a Z-score of −0.3523.

`COc1ccc(NS(=O)(=O)c2ccc(N)cc2)nn1` [Sulfamethoxypyridazine]: the Z-score is listed as −0.0234.

`Cc1onc(-c2ccccc2Cl)c1C(=O)N[C@@H]1C(=O)N2[C@@H]1SC(C)(C)[C@@H]2C(=O)O` [Cloxacillin sodium salt] registered a Z-score of −1.0101.

`O=c1cc(-c2ccc(O)cc2)oc2cc(O)cc(O)c12` [Apigenin] gave a Z-score of −0.2208.

Compound `CN1CCC(=C2c3ccccc3C=Cc3ccccc32)CC1` [Cyproheptadine hydrochloride] returned a Z-score of −1.6013.

For the compound `CC(C)(C)NC[C@@H](O)COc1cccc2c1CCCC2=O.Cl` [(+)-Levobunolol hydrochloride], the Z-score was −0.1813.

In the case of `CCOC(=O)[C@H](CCc1ccccc1)N[C@@H](C)C(=O)N1[C@H](C(=O)O)C[C@@H]2CCC[C@@H]21` [Ramipril], the Z-score was 1.188.

The compound `C[C@]12CC[C@H](O)C[C@H]1CC[C@@H]1[C@@H]2CC[C@]2(C)[C@@H](C3=CC(=O)OC3)CC[C@]12O` [Digitoxigenin] yielded a Z-score of −0.9264.

In turn, `NCCCC[C@H](N[C@@H](CCc1ccccc1)C(=O)O)C(=O)N1CCC[C@H]1C(=O)O` [Lisinopril] returned a Z-score of 0.5403.

The compound `CCN(CC)CCOCCOC(=O)C1(c2ccccc2)CCCC1` [Carbetapentane citrate] had a Z-score of 1.581.

In the case of `C[C@@H]1NCCc2cc(O)c(O)cc21` [Salsolinol hydrobromide], the Z-score stood at 0.8772.

For `CCc1c(C)[nH]c2c1C(=O)C(CN1CCOCC1)CC2` (centres unmarked) [Molindone hydrochloride], the Z-score amounted to 2.263.

Consider `CN[C@@H]1[C@@H](O[C@H]2O[C@H](CO)[C@@H](N)[C@H](O)[C@H]2O)OC2C[C@@H](N)[C@@H](O[C@H]3[C@H](O)[C@@H](O)[C@H](N)C[C@@H]3N)OC2[C@@H]1O` (some centres unmarked) [Apramycin], for which the Z-score is on record as −1.1349.

Turning to `CN(C)CCCN1c2ccccc2CCc2ccccc21` [Imipramine hydrochloride], the Z-score was found to be 1.459.

On to `O=C(NCC1CCCCN1)c1cc(OCC(F)(F)F)ccc1OCC(F)(F)F` (centres unmarked) [Flecainide acetate], for which the Z-score is −0.9948.

Compound `Cc1c(OCC(F)(F)F)ccnc1C[S+]([O-])c1nc2ccccc2[nH]1` (centres unmarked) [Lansoprazole] yielded a Z-score of −0.4696.

With `Cc1cccc(N(C)C(=S)Oc2ccc3ccccc3c2)c1` [Tolnaftate], the Z-score turned out to be 0.2441.

`CCC1(c2ccc(N)cc2)CCC(=O)NC1=O` (centres unmarked) [Glutethimide, para-amino] showed a Z-score of 0.2858.

In turn, `CCOC(=O)C1=C(C)NC(C)=C(C(=O)OC)C1c1cccc(Cl)c1Cl` (centres unmarked) [Felodipine] yielded a Z-score of 1.337.

In turn, `CC(C)(C)NCC(O)c1cc(Cl)c(N)c(Cl)c1` (centres unmarked) [Clenbuterol hydrochloride] showed a Z-score of 0.2391.

The compound `O=C1CN(/N=C/c2ccc([N+](=O)[O-])o2)C(=O)N1` [Nitrofurantoin] yielded a Z-score of 0.3631.

For `CN1CCCC(CC2c3ccccc3Sc3ccccc32)C1` (centres unmarked) [Metixene hydrochloride], the Z-score is −0.8136.

As for `CN(C(=O)C(Cl)Cl)c1ccc(OC(=O)c2ccco2)cc1` [Diloxanide furoate], the Z-score was −0.9785.

The compound `Cc1c(N)c(=O)n(-c2ccccc2)n1C` [Ampyrone] registered a Z-score of −0.2996.

`CC(CCc1ccc(O)cc1)NCCc1ccc(O)c(O)c1` (centres unmarked) [Dobutamine hydrochloride] returned a Z-score of −0.4732.

In turn, `Cl.Cl.c1ccc2c3c([nH]c2c1)C1C2CCC(C4CCCNC42)N1CC3` (centres unmarked) [Nitrarine dihydrochloride] had a Z-score of −0.8582.

Take `O.O=C(O)[C@@H]1[C@H]2C[C@H]3c4[nH]c5ccccc5c4CCN3C[C@@H]2CC[C@@H]1O` [Yohimbinic acid monohydrate]: the Z-score was −0.0239.

Take `CCC(=O)OCC(=O)[C@@]1(OC(=O)CC)[C@@H](C)C[C@H]2[C@@H]3CCC4=CC(=O)C=C[C@]4(C)[C@@]3(Cl)[C@@H](O)C[C@@]21C` [Beclomethasone dipropionate]: the Z-score is recorded as −0.2791.

Regarding `CCN(CC)CCNC(=O)c1cc(Br)c(N)cc1OC` [Bromopride], the Z-score is on record as 0.9486.

The values are drawn from patent US9393221B2, “Methods and compounds for reducing intracellular lipid storage” (THE GENERAL HOSPITAL CORPORATION, priority 2011, dated 2016).
